Test results reported in patent publication US20250171430A1, “PYRAZOLYL COMPOUNDS AS KV7 CHANNEL ACTIVATORS” (Biohaven Therapeutics Ltd., priority 2022, published 2025).

Target: T1, Kv7.2/7.3 (Homo sapiens, UniProt O43525+O43526)
T1 construct: Kv7.2 tetracycline-induced, Kv7.3 constitutive
Assay: Kv7.2/7.3 Activation Assay (Thallium Flux Assay)
Assay type: cell-based
Conditions: hKV7.2/7.3 cell line; test compound at single concentration of 10 μM; fluorescence at 90 sec normalized to positive control (retigabine, 30 μM)
Procedure, shortened: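 Single-point activity at 10 μM (0.1% DMSO, HEPES-buffered saline, pH 7.4) was scored from fluorescence at 90 s relative to 30 μM retigabine. Categories were none <0.15, moderate 0.15-0.7 and high >0.7. Thallium influx after stimulus addition was followed with FluxOR II Green dye in hKv7.2/7.3 cells, Kv7.2 expressed under overnight tetracycline (10 ng/mL) induction.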

SMILES	Kv7.2/7.3 Activity
CCO[C@@H](CC(=O)Nc1nn(C)c(-c2ccc(F)c(F)c2)c1C1CCC1)C(F)(F)F [Compound 214, (S)-N-(4-cyclobutyl-5-(3,4-difluorophenyl)-1-methyl-1H-pyrazol-3-yl)-3-ethoxy-4,4,4-trifluorobutanamide]	++ (“++” High Activity ≥ 0.7)
Cn1nc(NC(=O)C[C@H]2CC(F)(F)C2(F)F)c(C2CCC2)c1-c1ccc(OC(F)(F)F)cc1 [Compound 33, (S)-N-(4-cyclobutyl-1-methyl-5-(4-(trifluoromethoxy)phenyl)-1H-pyrazol-3-yl)-2-(2,2,3,3-tetrafluorocyclobutyl)acetamide]	++ (“++” High Activity ≥ 0.7)
Cn1nc(NC(=O)CC2CC(F)(F)C2)c(C2CCC2)c1-c1cc(F)cc(F)c1 [Compound 258, N-(4-cyclobutyl-5-(3,5-difluorophenyl)-1-methyl-1H-pyrazol-3-yl)-2-(3,3-difluorocyclobutyl)acetamide]	++ (“++” High Activity ≥ 0.7)
Cn1nc(NC(=O)C[C@H]2CC(F)(F)C2(F)F)c(C2CCC2)c1-c1ccc(S(C)(=O)=O)cc1 [Compound 54, (S)-N-(4-cyclobutyl-1-methyl-5-(4-(methylsulfonyl)phenyl)-1H-pyrazol-3-yl)-2-(2,2,3,3-tetrafluorocyclobutyl)acetamide]	− (“−” No Activity < 0.15)
Cn1nc(NC(=O)CC2(C(F)(F)F)CC2)c(C2CCC2)c1-c1ccccc1 [Compound 12, N-(4-cyclobutyl-1-methyl-5-phenyl-1H-pyrazol-3-yl)-2-(1-(trifluoromethyl)cyclopropyl)acetamide]	++ (“++” High Activity ≥ 0.7)
Cn1nc(NC(=O)CC(C)(C)C(F)(F)F)c(C2CCC2)c1-c1ccc(Cl)s1 [Compound 96, N-(5-(5-chlorothiophen-2-yl)-4-cyclobutyl-1-methyl-1H-pyrazol-3-yl)-4,4,4-trifluoro-3,3-dimethylbutanamide]	++ (“++” High Activity ≥ 0.7)
Cn1nc(NC(=O)C2COC2)c(C2CCC2)c1-c1cc(F)c(F)c(F)c1 [Compound 275, N-(4-cyclobutyl-1-methyl-5-(3,4,5-trifluorophenyl)-1H-pyrazol-3-yl)oxetane-3-carboxamide]	− (“−” No Activity < 0.15)
Cn1nc(NC(=O)CC(C)(C)C)c(C2CCC2)c1-c1ccc(C(C)(C)O)cc1 [Compound 29, N-(4-cyclobutyl-5-(4-(2-hydroxypropan-2-yl)phenyl)-1-methyl-1H-pyrazol-3-yl)-3,3-dimethylbutanamide]	− (“−” No Activity < 0.15)
